Experimental findings from article PMC7290285 (Viruses, 2020) are described below.

The subject of this experiment is ecotropic pseudo-typed lentiviral particles (luciferase) in PM1-mCat1 cells. Kind of experiment: Luciferase-based viral integration assay using PM1-mCat1 cells.
The mark [1] stands for this setting: Human immunodeficiency virus 1, read-out: IC50 (in µM), viral integration assay.

SMILES strings stand for the structures. Where two headings read alike, the source gives them in different places.

Take `Cc1nc(SCC(=O)NC(C)c2cccs2)c(C#N)c(C)c1C` (stereo not drawn) [T5788505, CC(NC(=O)CSC1=C(C#N)C(C)=C(C)C(C)=N1)C1=CC=CS1]: under setting [1], the IC50 was determined as 1.99 µM.

Regarding `c1ccc(CCNc2nc(CN3CCOCC3)nc3scc(-c4cccs4)c23)nc1` [T6312425, C(CC1=NC=CC=C1)NC1=C2C(SC=C2C2=CC=CS2)=NC(CN2CCOCC2)=N1], the IC50 under setting [1] was above 10 µM.

As for `COC(=O)c1ccccc1NS(=O)(=O)c1c(F)cc(F)cc1Br` [T6007055, COC(=O)C1=C(NS(=O)(=O)C2=C(Br)C=C(F)C=C2F)C=CC=C1], the IC50 under setting [1] came out at 1.35 µM.

As for `CCNC1=NN=C(c2cc(C)n(C3CC3)c2C)CS1` [T5633521, CCNC1=NN=C(CS1)C1=C(C)N(C2CC2)C(C)=C1], the IC50 under setting [1] came to 1.05 µM.

On to `CCc1ccc(-c2csc(Cn3c(CN4CCOCC4)nc4ccccc4c3=O)n2)cc1` [T5938606, CCC1=CC=C(C=C1)C1=CSC(CN2C(CN3CCOCC3)=NC3=C(C=CC=C3)C2=O)=N1], for which the IC50 under setting [1] came out at 5.91 µM.

As for `O=C(CNc1ccccc1-c1ccccc1)Nc1ccccc1Cl` [T5943324, ClC1=C(NC(=O)CNC2=C(C=CC=C2)C2=CC=CC=C2)C=CC=C1], the IC50 under setting [1] came to 7.79 µM.

For `c1csc(-c2csc3nc(CN4CCOCC4)nc(N4CCCC4)c23)c1` [T5587925, C(N1CCOCC1)C1=NC2=C(C(=CS2)C2=CC=CS2)C(=N1)N1CCCC1], under setting [1], the IC50 turned out to be 3.97 µM.

Take `Cc1nnc(C(=O)NC(C)(C)c2nc(C(=O)NCc3ccc(F)cc3)c(O)c(=O)n2C)o1` [Raltegravir, reference compound]: the IC50 (Human immunodeficiency virus 1, read-out: IC50s during a 6-month period) lay in the range of 0.0021 to 0.0079 µM.

For the compound `CCNC(=O)COC(=O)c1c(C)c(-c2cccc(Cl)c2)nc2ccccc12` [T0516-3343, CCNC(=O)COC(=O)C1=C2C=CC=CC2=NC(=C1C)C1=CC(Cl)=CC=C1], the IC50 (read-out: IC50 (in µM), viral integration assay, Table S3, PM1-mCat1, dose-response hit profiling) amounted to 6.07 µM.

On to `c1ccc(CNc2nc(CN3CCOCC3)nc3scc(-c4cccs4)c23)cc1` [T5605915, C(NC1=C2C(SC=C2C2=CC=CS2)=NC(CN2CCOCC2)=N1)C1=CC=CC=C1], for which the IC50 under setting [1] is 4.67 µM.

On to `COc1ccccc1N1CCN(C(=O)c2cc(Cl)ccc2O)CC1` [T6328287, COC1=C(C=CC=C1)N1CCN(CC1)C(=O)C1=C(O)C=CC(Cl)=C1], for which the IC50 under setting [1] was determined as 3.89 µM.

With `Cc1cc(Cl)c(C)c(S(=O)(=O)NCCCN2CCCC2=O)c1Cl` [T6312190, CC1=C(Cl)C(=C(C)C(Cl)=C1)S(=O)(=O)NCCCN1CCCC1=O], under setting [1], the IC50 amounted to 2.02 µM.

On to `O=C(Cc1csc(-c2ccccn2)n1)N=c1sccn1Cc1ccccc1` [T6357587, O=C(CC1=CSC(=N1)C1=NC=CC=C1)N=C1SC=CN1CC1=CC=CC=C1], for which the IC50 under setting [1] was determined as 8.3 µM.

With `O=C(Nc1ccccc1-n1cccn1)c1ccccc1Br` [T6468172, BrC1=C(C=CC=C1)C(=O)NC1=C(C=CC=C1)N1C=CC=N1], the IC50 under setting [1] is 1.04 µM.

On to `O=c1[nH]c(CSc2nnc(C3CC3)o2)nc2scc(-c3ccco3)c12` [T5983422, O=C1NC(CSC2=NN=C(O2)C2CC2)=NC2=C1C(=CS2)C1=CC=CO1], for which the IC50 under setting [1] is 2.28 µM.

For `C=CCNC(=O)CN1CCN(c2nc3ccccc3s2)CC1` [T6471356, C=CCNC(=O)CN1CCN(CC1)C1=NC2=C(S1)C=CC=C2], the IC50 under setting [1] worked out at 2.37 µM.

Regarding `Cc1ccccc1-n1nnnc1SCc1nnc(-c2cccs2)o1` [T5805638, CC1=C(C=CC=C1)N1N=NN=C1SCC1=NN=C(O1)C1=CC=CS1], under setting [1], the IC50 stood at 1.45 µM.

For the compound `CN(C1CCCCC1)S(=O)(=O)c1cccc(C#N)c1` [T5339669, CN(C1CCCCC1)S(=O)(=O)C1=CC(=CC=C1)C#N], the IC50 under setting [1] is 5.2 µM.

`Clc1cccc(Nc2nc(CN3CCOCC3)nc3scc(-c4ccccc4)c23)c1` [T5363639, ClC1=CC(NC2=C3C(SC=C3C3=CC=CC=C3)=NC(CN3CCOCC3)=N2)=CC=C1]: under setting [1], the IC50 worked out at 2 µM.

On to `O=C(Nc1ccccc1O)c1ccccc1Br` [T6043692, OC1=C(NC(=O)C2=C(Br)C=CC=C2)C=CC=C1], for which the IC50 under setting [1] came out at 4.11 µM.

On to `c1coc(-c2noc(CNc3ccccc3-n3cccn3)n2)c1` [T6671011, C(NC1=C(C=CC=C1)N1C=CC=N1)C1=NC(=NO1)C1=CC=CO1], for which the IC50 under setting [1] was 4 µM.

For `Cc1oc(-c2ccccc2)nc1CN1CC(C(=O)N2CCCCC2)Oc2ccccc21` (stereo not drawn) [T6329376, CC1=C(CN2CC(OC3=C2C=CC=C3)C(=O)N2CCCCC2)N=C(O1)C1=CC=CC=C1], under setting [1], the IC50 turned out to be 4.83 µM.

As for `CS(=O)(=O)c1ccc(NC(=O)CNc2ccccc2-c2ccccc2)cc1` [T5950416, CS(=O)(=O)C1=CC=C(NC(=O)CNC2=C(C=CC=C2)C2=CC=CC=C2)C=C1], the IC50 under setting [1] is 2.08 µM.

For the compound `CN(C1CCCCCC1)S(=O)(=O)c1cccc(C#N)c1` [T6302141, CN(C1CCCCCC1)S(=O)(=O)C1=CC(=CC=C1)C#N], the IC50 under setting [1] was found to be 2.24 µM.

In the case of `COc1ccc(N(Cc2ccccc2)S(=O)(=O)c2cccc(C(=O)NCc3ccncc3)c2)cc1` [T5435331, COC1=CC=C(C=C1)N(CC1=CC=CC=C1)S(=O)(=O)C1=CC(=CC=C1)C(=O)NCC1=CC=NC=C1], the IC50 under setting [1] was determined as 3.14 µM.

With `CC(=O)c1ccccc1NC(=O)CNc1ccccc1-c1ccccc1` [T5989502, CC(=O)C1=C(NC(=O)CNC2=C(C=CC=C2)C2=CC=CC=C2)C=CC=C1], under setting [1], the IC50 was 1.94 µM.

On to `CC(Nc1nc(CN2CCOCC2)nc2sc3c(c12)CCC3)c1cccc(Cl)c1` (stereo not drawn) [T5952126, CC(NC1=C2C3=C(CCC3)SC2=NC(CN2CCOCC2)=N1)C1=CC(Cl)=CC=C1], for which, under setting [1], the IC50 turned out to be 1.53 µM.

Take `CC(C)CCn1cnc2c1c(=O)n(CC(=O)NC1CC1)c(=O)n2Cc1ccccc1` [T5351795, CC(C)CCN1C=NC2=C1C(=O)N(CC(=O)NC1CC1)C(=O)N2CC1=CC=CC=C1]: under setting [1], the IC50 was found to be 4.64 µM.

In the case of `O=C(CSc1nnc(C2CC2)o1)NC(c1ccccc1)c1cccs1` (stereo not drawn) [T5964141, O=C(CSC1=NN=C(O1)C1CC1)NC(C1=CC=CS1)C1=CC=CC=C1], the IC50 under setting [1] came out at 1.26 µM.

For the compound `O=C(Nc1ccc2c(c1)OCCCO2)c1cccc(N2CCCC2=O)c1` [T5609721, O=C(NC1=CC2=C(OCCCO2)C=C1)C1=CC(=CC=C1)N1CCCC1=O], the IC50 under setting [1] turned out to be 4.12 µM.

Take `COc1ccc(CC(=O)Nc2ccc(OC)cc2)cc1` [T6053460, COC1=CC=C(CC(=O)NC2=CC=C(OC)C=C2)C=C1]: under setting [1], the IC50 came to 6.46 µM.

As to `Cc1cccn2c(=O)cc(CN3CC(C(=O)N4CCCCC4)Oc4ccccc43)nc12` (stereo not drawn) [T5615894, CC1=CC=CN2C(=O)C=C(CN3CC(OC4=C3C=CC=C4)C(=O)N3CCCCC3)N=C12], the IC50 under setting [1] stood at 2.93 µM.

Take `N#Cc1ccccc1S(=O)(=O)N1CCC(CCc2ccccc2)CC1` [T5952497, O=S(=O)(N1CCC(CCC2=CC=CC=C2)CC1)C1=C(C=CC=C1)C#N]: the IC50 under setting [1] was 4.27 µM.

As to `C=CCOC(=O)C1=C(C)NC(=S)NC1c1ccc(C(C)C)cc1` (stereo not drawn) [T6203208, CC(C)C1=CC=C(C=C1)C1NC(=S)NC(C)=C1C(=O)OCC=C], the IC50 under setting [1] was determined as 4.37 µM.

On to `CCOc1ccc(C(=O)Nc2cc(C)ccc2F)cc1` [T5869032, CCOC1=CC=C(C=C1)C(=O)NC1=C(F)C=CC(C)=C1], for which the IC50 under setting [1] worked out at 1.1 µM.

Consider `c1ccc(-c2csc3nc(CN4CCOCC4)nc(NCCC4CCCO4)c23)cc1` (stereo not drawn) [T5948460, C(CC1CCCO1)NC1=C2C(SC=C2C2=CC=CC=C2)=NC(CN2CCOCC2)=N1], for which the IC50 under setting [1] is 2.33 µM.

Regarding `Cc1cccc(C)c1NC(=O)CN1CCCC1c1nc2ccccc2s1` (stereo not drawn) [T5823772, CC1=CC=CC(C)=C1NC(=O)CN1CCCC1C1=NC2=C(S1)C=CC=C2], under setting [1], the IC50 worked out at 8.88 µM.

Consider `c1csc(-c2csc3nc(CN4CCOCC4)nc(NN4CCCCC4)c23)c1` [T6026407, C(N1CCOCC1)C1=NC2=C(C(=CS2)C2=CC=CS2)C(NN2CCCCC2)=N1], for which the IC50 under setting [1] was 2.73 µM.

Turning to `O=C(COc1ccccc1-c1ccccc1)NCc1ccccc1Cn1cccn1` [T5945790, O=C(COC1=C(C=CC=C1)C1=CC=CC=C1)NCC1=C(CN2C=CC=N2)C=CC=C1], under setting [1], the IC50 was 6.78 µM.

With `O=S(=O)(c1ccc(Sc2ncnc3scc(-c4ccc(F)cc4)c23)nc1)N1CCOCC1` [T5643556, FC1=CC=C(C=C1)C1=CSC2=C1C(SC1=NC=C(C=C1)S(=O)(=O)N1CCOCC1)=NC=N2], the IC50 under setting [1] was 6.19 µM.

For the compound `O=C(Nc1ccccc1N1CCCC1)c1cc(S(=O)(=O)N2CCOCC2)ccc1Cl` [T6137813, ClC1=C(C=C(C=C1)S(=O)(=O)N1CCOCC1)C(=O)NC1=C(C=CC=C1)N1CCCC1], the IC50 under setting [1] came to 5.04 µM.

In the case of `Cc1ccc(F)c(NC(=O)c2ccc(OC(F)F)cc2)c1` [T5506295, CC1=CC(NC(=O)C2=CC=C(OC(F)F)C=C2)=C(F)C=C1], the IC50 under setting [1] came out at 1.77 µM.

As for `O=C(CSc1nnc(-c2cccc(Cl)c2)n1-c1ccccc1C(F)(F)F)NCc1ccco1` [T5258076, FC(F)(F)C1=C(C=CC=C1)N1C(SCC(=O)NCC2=CC=CO2)=NN=C1C1=CC(Cl)=CC=C1], under setting [1], the IC50 was 4.76 µM.

On to `N#Cc1ccccc1S(=O)(=O)N1CCN(Cc2ccc(-c3ccccc3)cc2)CC1` [T5432718, O=S(=O)(N1CCN(CC2=CC=C(C=C2)C2=CC=CC=C2)CC1)C1=C(C=CC=C1)C#N], for which the IC50 under setting [1] came to 6.33 µM.

Regarding `Cc1ccc(S(=O)(=O)N2CCOCC2)cc1C(=O)Nc1ccccc1N1CCCC1` [T5530682, CC1=C(C=C(C=C1)S(=O)(=O)N1CCOCC1)C(=O)NC1=C(C=CC=C1)N1CCCC1], the IC50 under setting [1] was determined as 8.26 µM.

`COC(=O)c1ccc(C(=O)Nc2ncc(C)s2)cc1` [T5650116, COC(=O)C1=CC=C(C=C1)C(=O)NC1=NC=C(C)S1]: the IC50 under setting [1] is 2.79 µM.

Consider `CCn1c(SCC(=O)Nc2ccccc2C#N)nc2ccsc2c1=O` [T6068357, CCN1C(=O)C2=C(C=CS2)N=C1SCC(=O)NC1=C(C=CC=C1)C#N], for which, under setting [1], the IC50 was 1.49 µM.

Consider `CC(C)CCn1cnc2c1c(=O)n(CC(=O)NC(C)C)c(=O)n2Cc1ccccc1` [T5488769, CC(C)CCN1C=NC2=C1C(=O)N(CC(=O)NC(C)C)C(=O)N2CC1=CC=CC=C1], for which, under setting [1], the IC50 worked out at 9.06 µM.

As to `Cc1nc(SCC(=O)NCCC(C)C)c(C#N)c(C)c1C` [T5989363, CC(C)CCNC(=O)CSC1=C(C#N)C(C)=C(C)C(C)=N1], the IC50 under setting [1] came to 7.91 µM.

Turning to `O=C(Nc1ccc2c(c1)OCO2)c1cccc(N2CCCC2=O)c1` [T5821319, O=C(NC1=CC2=C(OCO2)C=C1)C1=CC(=CC=C1)N1CCCC1=O], the IC50 under setting [1] is 1.58 µM.

In the case of `Cc1cnc2c(S(=O)(=O)N3CCN(Cc4ccc5c(c4)OCCO5)CC3)cccc2c1` [T6332191, CC1=CC2=C(N=C1)C(=CC=C2)S(=O)(=O)N1CCN(CC2=CC3=C(OCCO3)C=C2)CC1], the IC50 under setting [1] was determined as 1.42 µM.
